What was measured:
[1] = Therapeutically effective daily dose (oral / transdermal); format: in vivo; conditions: estimated values
[2] = cited from earlier work
[3] = In vitro flux through pig skin in a Franz diffusion cell (saturated ethanolic solution or system of Example 1); conditions: for skin permeation in vitro, alcoholic solution: saturated ethanolic solution
Description: The flux of progesterone and synthetic progestrone derivatives is measured in vitro as follows:
After 24 hours, an aliquot of the aqueous acceptor solution from the acceptor compartment is examined for content of the relevant progesterone derivative and, from this, the flux in μg cm^2 ×h is calculated.

endometrium carcinomas = conditions: following treatment; numerous studies in the USA; cited from earlier work
[4] = cited from earlier work; remark: listed apart in the source
[5] = vehicle of DE-A No. 3 205 258, e.g. ethanol gel; systems of acceptable size; cited from earlier work

C#C[C@]1(O)CC[C@H]2[C@@H]3CCC4=CC(=O)CC[C@@H]4[C@H]3CC[C@@]21CC [d-norgestrel]
therapeutically effective daily dose, transdermal [1]: 0.05 mg
therapeutically effective daily dose, oral [2]: 0.07 to 0.15 mg
skin permeation in vitro, alcoholic solution ([3]; pig skin, 24 hours): 0.028 μg/cm^2 · h

CC(=O)O[C@]1(C(C)=O)CC[C@H]2[C@@H]3C[C@H](C)C4=CC(=O)CC[C@]4(C)[C@H]3CC[C@@]21C [medroxyprogesterone acetate]
therapeutically effective daily dose, transdermal [1]: 2 mg
therapeutically effective daily dose, oral [2]: 2.5 to 10 mg

C#C[C@]1(OC(C)=O)CC[C@H]2[C@@H]3CCC4=CC(=O)CC[C@@H]4[C@H]3CC[C@@]21C [norethisterone acetate, norethisterone-17-acetate]
therapeutically effective daily dose, transdermal [1]: 2 mg
therapeutically effective daily dose, oral [2]: 0.5 to 5 mg

C#C[C@]1(O)CC[C@H]2[C@@H]3CCC4=CC(=O)CC[C@@H]4[C@H]3CC[C@@]21C [norethisterone]
therapeutically effective daily dose, transdermal [1]: 0.2 mg
therapeutically effective daily dose, oral [2]: 0.5 to 5 mg
necessary surface area of system ([3]; estimated values): 350 cm^2
skin permeation in vitro, alcoholic solution ([3]; pig skin, 24 hours): 0.024 μg/cm^2 · h

CCCCC(=O)O[C@H]1CC[C@H]2[C@@H]3CCc4cc(O)ccc4[C@H]3CC[C@]12C [oestradiol valerate, estradiol-17-valerate]
times higher incidence of endometrium carcinomas (endometrium carcinomas): 3.3 to 6 times

C[C@]12CC[C@@H]3c4ccc(O)cc4CC[C@H]3[C@@H]1CC[C@@H]2O [oestradiol, 17β-oestradiol]
times higher incidence of endometrium carcinomas (endometrium carcinomas): 3.3 to 6 times
resorption following oral administration [4]: unsatisfactory
undesirable side-effects ([4]; oral, high dosage, frequent occurrence): nausea, thromboembolism
metabolisation by the liver ([4]; oral): rapid

CC(=O)[C@H]1CC[C@H]2[C@@H]3CCC4=CC(=O)CC[C@]4(C)[C@H]3CC[C@]12C [progesterone]
therapeutically effective daily dose, transdermal [1]: 2 mg
therapeutically effective daily dose, oral [2]: 100 to 300 mg
amount that passes through the skin for an adequate therapeutic effect [5]: not sufficient
skin permeation in vitro, alcoholic solution ([3]; pig skin, 24 hours): 3.0 μg/cm^2 · h
skin permeation in vitro, system according Example 1 ([3]; transdermal therapeutic system according to Example 1, pig skin, 24 hours): 0.073 μg/cm^2 · h

From patent US4913905A, “Transdermal therapeutic systems for active ingredient combinations” (priority 1987, dated 1990)
